Data taken from ChEMBL document CHEMBL3286343, “Fused Thiazin-3-ones as KCa3.1 Inhibitors” (ACS Med Chem Lett, 2014).

Target: Intermediate conductance calcium-activated potassium channel protein 4 (Homo sapiens, UniProt O15554)
Test: Inhibition of human KCa3.1 overexpressed in HEK293 cells assessed as thallium influx preincubated for 15 mins followed by thallium/ionomycin addition measured for 50 secs by FLIPR assay
Assay type: cell-based

Sequence of Intermediate conductance calcium-activated potassium channel protein 4 (O15554 whole entry): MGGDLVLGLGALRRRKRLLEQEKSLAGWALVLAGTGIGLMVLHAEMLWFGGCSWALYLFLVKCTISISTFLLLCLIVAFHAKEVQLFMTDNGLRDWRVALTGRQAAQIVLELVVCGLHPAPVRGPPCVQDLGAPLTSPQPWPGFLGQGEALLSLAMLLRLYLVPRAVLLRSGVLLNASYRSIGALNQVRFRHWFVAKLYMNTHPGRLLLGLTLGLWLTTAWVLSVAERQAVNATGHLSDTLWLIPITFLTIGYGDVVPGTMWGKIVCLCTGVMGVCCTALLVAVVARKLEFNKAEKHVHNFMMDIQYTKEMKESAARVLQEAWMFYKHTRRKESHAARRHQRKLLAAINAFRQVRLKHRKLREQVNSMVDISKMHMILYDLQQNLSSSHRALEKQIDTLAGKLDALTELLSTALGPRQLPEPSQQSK

| IC50 [nM] | SMILES |
| --- | --- |
| 39 | CC(c1ccc(F)c(OC(F)(F)F)c1)N1C(=O)CS(=O)(=O)c2ccsc21 (configuration not stated) |
| 60 | CC(c1ccc(F)c(OC(F)(F)F)c1)N1C(=O)CSc2ncsc21 (configuration not stated) |
